Data from ChEMBL document CHEMBL1201862, “PubChem BioAssay data set” (2004).
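Compound exposure: 48 hours, 5 concentrations, 96-well plates. GI50 marks 50% less growth.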 Calls of active or inactive are those of the source. No stated cut-off is given here; in the data, active = GI50 up to about 1.1 µM and inactive = higher. Residues, ends and D or L forms follow the SMILES beside them. *: point of attachment. Boc = CC(C)(C)OC(=O)*; OBn = c1ccc(CO*)cc1

Assays:
Assay in all cases: NCI anticancer screen, dose series, 48 h
[1] = tested on: 786-0
[2] = tested on: A549
[3] = tested on: ACHN
[4] = tested on: CCRF-CEM
[5] = tested on: COLO 205
[6] = tested on: EKVX
[7] = tested on: HCT-116
[8] = tested on: HL-60
[9] = tested on: HT-29
[10] = tested on: IGROV-1
[11] = tested on: LOX IMVI
[12] = tested on: MCF7
[13] = tested on: MDA-MB-231
[14] = tested on: MOLT-4
[15] = tested on: NCI-H522
[16] = tested on: NCI/ADR-RES
[17] = tested on: SF-268
[18] = tested on: SN12C
[19] = tested on: SW-620
[20] = tested on: UO-31

Measured: GI50

Fc1ccc(C(OCCN2CC3CC2CN3CCCc2ccccc2)c2ccc(F)cc2)cc1 (stereo not given)
inactive: [1] 5.53 µM | [2] 12 µM | [3] 11.5 µM | [4] 4.52 µM | [5] 1.68 µM | [6] 6.01 µM | [7] 5.86 µM | [8] 2.71 µM | [9] 3.85 µM | [10] 10.1 µM | [11] 5.87 µM | [12] 6.08 µM | [13] 4.61 µM | [14] 3.61 µM | [15] 7.98 µM | [16] 5.64 µM | [17] 10.2 µM | [18] 10.3 µM | [19] 6.53 µM | [20] 12.3 µM

COC(=O)C1(Cc2ccccc2)Cc2ccccc2C1O (stereo not given)
inactive: [1] > 100 µM | [2] 87.5 µM | [3] > 100 µM | [4] > 100 µM | [5] > 100 µM | [6] 65 µM | [7] > 100 µM | [8] > 100 µM | [9] > 100 µM | [10] > 100 µM | [11] > 100 µM | [12] > 100 µM | [13] > 100 µM | [14] 39.4 µM | [15] 56.8 µM | [16] > 100 µM | [17] > 100 µM | [18] > 100 µM | [19] > 100 µM | [20] 62.4 µM

COc1cc(/C=C2/CCCc3ccccc3C2=O)cc(OC)c1OC
inactive: [1] 18.3 µM | [2] 27 µM | [3] 15.8 µM | [4] 4.19 µM | [5] 18.2 µM | [6] 17.6 µM | [7] 6.65 µM | [8] 2.72 µM | [9] 17.5 µM | [10] 28.9 µM | [11] 15.4 µM | [12] 9.79 µM | [13] 15.6 µM | [14] 3.46 µM | [15] 11.3 µM | [16] 9.2 µM | [17] 14.7 µM | [18] 15.1 µM | [19] 22.4 µM | [20] 14.6 µM

CC(C)N(C(=O)C12C3(C(=O)C(C)(C)C)C4C5(C#N)C3C1(C(=O)C(C)(C)C)C5C42C(=O)C(C)(C)C)C(C)C (stereo not given)
inactive: [1] > 100 µM | [2] > 100 µM | [3] > 100 µM | [4] > 100 µM | [5] > 100 µM | [6] > 100 µM | [7] > 100 µM | [8] > 100 µM | [9] > 100 µM | [10] > 100 µM | [11] > 100 µM | [12] > 100 µM | [13] > 100 µM | [14] > 100 µM | [15] > 100 µM | [16] > 100 µM | [17] > 100 µM | [18] > 100 µM | [19] > 100 µM | [20] > 100 µM

CC(NC(=O)CNC(=O)OC(C)(C)C)C(=O)NC(Cc1ccccc1)C(=O)OCc1ccccc1 (stereo not drawn) (Boc-Gly-Ala-Phe-OBn; configuration not given here)
inactive: [1] 27.9 µM | [2] > 100 µM | [3] > 100 µM | [4] 40.9 µM | [5] > 100 µM | [6] > 100 µM | [7] 14.9 µM | [8] 36.3 µM | [9] 95.9 µM | [10] > 100 µM | [11] 7.23 µM | [12] > 100 µM | [13] > 100 µM | [14] 36 µM | [15] 68.4 µM | [16] > 100 µM | [17] 86.9 µM | [18] > 100 µM | [19] > 100 µM | [20] > 100 µM

CCCC(=O)OCC(COC(=O)CCC)OC(=O)CCC [TRIBUTYRIN]
inactive: [1] > 100 µM | [2] 96.6 µM | [3] 96.2 µM | [4] 46.1 µM | [5] 55.6 µM | [6] > 100 µM | [7] 48.8 µM | [8] 33.3 µM | [9] > 100 µM | [10] > 100 µM | [11] 82 µM | [12] > 100 µM | [13] 45.2 µM | [14] 73.5 µM | [15] 17.9 µM | [16] 20.1 µM | [17] > 100 µM | [18] > 100 µM | [19] > 100 µM | [20] 34.4 µM
